Reference: patent publication US20140288071A1, “INHIBITORS OF NOTUM […] AND METHODS OF THEIR USE” (priority 2011, published 2014)

Tests used:
[1] = target: T1, human notum pectinacetyltransferase (Homo sapiens, UniProt Q6P988); test: Binding assay (OPTS esterase substrate, fluorimetric); type: biochemical; settings: OPTS substrate 5 μM
T1 construct: made in house; conditioned medium used
T1 sequence (Q6P988 20-496): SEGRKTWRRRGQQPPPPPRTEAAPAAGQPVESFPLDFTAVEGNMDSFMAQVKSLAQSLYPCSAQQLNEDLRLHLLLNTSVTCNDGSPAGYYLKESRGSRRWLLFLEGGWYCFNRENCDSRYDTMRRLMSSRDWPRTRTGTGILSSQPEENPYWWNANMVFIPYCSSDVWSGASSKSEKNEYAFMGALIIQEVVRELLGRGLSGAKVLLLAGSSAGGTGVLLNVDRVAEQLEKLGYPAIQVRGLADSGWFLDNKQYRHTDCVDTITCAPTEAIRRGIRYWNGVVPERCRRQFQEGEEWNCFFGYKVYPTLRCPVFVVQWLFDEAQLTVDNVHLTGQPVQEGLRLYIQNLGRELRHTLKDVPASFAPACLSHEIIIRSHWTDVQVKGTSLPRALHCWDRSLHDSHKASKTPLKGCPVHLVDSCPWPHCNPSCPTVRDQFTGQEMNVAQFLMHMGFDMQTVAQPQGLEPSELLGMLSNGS
Procedure: Plasmid containing human notum pectinacetyltransferase in pcDNA3.1(+) vector was transfected into HEK293 cells and clones were selecting by growing in presence of 400 ug/mL of G418. Condition media from these cells was used for the assay.

[2] = target: T1, human notum pectinacetyltransferase; test: Reporter assay (CellSensor LEF/TCF-bla FreeStyle 293F cells, Wnt3a and notum conditioned media); type: cell-based
Procedure: Plasmid containing human notum pectinacetyltransferase in pcDNA3.1(+) vector was transfected into HEK293 cells and clones were selecting by growing in presence of 400 ug/mL of G418. […] L cells overexpressing and secreting Wnt3a into the conditioned media were purchased from ATCC.
The assay protocol was as follows. […] The cell growth medium consisted of DMEM with 10% Dialyzed FBS, 5 μg/ml Blasticidin (Invitrogen, R210-01), 0.1 mM NEAA, 25 mM HEPES and 1×GPS. Cells were then trypsinized by first rinsing with PBS, followed by addition of 5 mL of trypsin and incubation of plates at room temperature for two minutes. A total of 10 mL of assay media (Opti-MEM, plus 0.5% dialyzed FBS, 0.1 mM NEAA, 1 mM sodium pyruvate, 10 mM HEPES, 1×GPS) was then added per 15 cm plate. Cells were counted and suspended at 0.75 million cells per mL. […] After incubation of cells at 37° C. for 3 hours, 10 μL of 30 mM LiCl in assay medium was added per well, followed by incubation at 37° C. for another 3 hours. […] Ten μL of the Wnt3a/notum pentinacetyltransferase mixture was then transferred from Greiner plates to each well of the 384-well plates containing the CellSensor cells. After incubation of cells overnight at 37° C., reactions were developed by addition of […] of 1×CCF4 (Invitrogen, Catalogue number K1085) to each well, covering the entire 384-well plate, and gentle rocking in the dark at room temperature for 3 hours.

Row | Compound | IC50 [1] | EC50 [2]
1 | CCCCOC(=O)CSc1ncnc2sc(C)c(C)c12 [butyl 2-((5,6-dimethylthieno[2,3-d]pyrimidin-4-yl)thio)acetate] | < 25 nM | < 1000 nM
2 | COC(=O)CSc1ncnc2c(C3CC3)c(Cl)sc12 [methyl 2-((6-chloro-7-cyclopropylthieno[3,2-d]pyrimidin-4-yl)thio)acetate] | < 25 nM | –
3 | Cc1c(Cl)sc2c(SCC(=O)NCCC#N)ncnc12 [2-((6-chloro-7-methylthieno[3,2-d]pyrimidin-4-yl)thio)-N-(2-cyanoethyl)acetamide] | < 25 nM | < 1000 nM
4 | O=C(O)CSc1ncnc2sc3c(c12)CCC3 [2-((6,7-dihydro-5H-cyclopenta[4,5]thieno[2,3-d]pyrimidin-4-yl)thio)acetic acid] | < 25 nM | < 5000 nM
5 | CC(C)c1sc2ncnc(SCC(=O)O)c2c1Br [2-((5-bromo-6-isopropylthieno[2,3-d]pyrimidin-4-yl)thio)acetic acid] | < 25 nM | < 1000 nM
6 | Cc1sc2c(SCC(=O)O)ncnc2c1C1CC1 [2-((7-cyclopropyl-6-methylthieno[3,2-d]pyrimidin-4-yl)thio)acetic acid] | < 25 nM | < 1000 nM
7 | COc1cc2c(cc1OC)CN(C(=O)CSc1ncnc3sc(C)c(C)c13)C2 [1-(5,6-dimethoxyisoindolin-2-yl)-2-((5,6-dimethylthieno[2,3-d]pyrimidin-4-yl)thio)ethanone] | < 25 nM | –
8 | COCCNC(=O)CSc1ncnc2c(C)c(Cl)sc12 [2-((6-chloro-7-methylthieno[3,2-d]pyrimidin-4-yl)thio)-N-(2-methoxyethyl)acetamide] | < 25 nM | < 1000 nM
9 | Cc1sc2ncnc(SCC(=O)NS(C)(=O)=O)c2c1Cl [2-((5-chloro-6-methylthieno[2,3-d]pyrimidin-4-yl)thio)-N-(methylsulfonyl)acetamide] | – | < 1000 nM
10 | Cc1sc2ncnc(SCC(=O)N3Cc4ccccc4C3)c2c1C [2-((5,6-dimethylthieno[2,3-d]pyrimidin-4-yl)thio)-1-(isoindolin-2-yl)ethanone] | < 25 nM | < 10000 nM
11 | CCNC(=O)CSc1ncnc2sc(C)c(Cl)c12 [2-((5-chloro-6-methylthieno[2,3-d]pyrimidin-4-yl)thio)-N-ethylacetamide] | < 25 nM | < 1000 nM
12 | CCc1sc2ncnc(SCC(=O)O)c2c1C [2-((6-ethyl-5-methylthieno[2,3-d]pyrimidin-4-yl)thio)acetic acid] | < 25 nM | –
13 | COC(=O)CSc1ncnc2sc(C)c(C)c12 [methyl 2-((5,6-dimethylthieno[2,3-d]pyrimidin-4-yl)thio)acetate] | < 25 nM | < 1000 nM
14 | Cc1sc2c(SCC(=O)O)ncnc2c1C [2-((6,7-dimethylthieno[3,2-d]pyrimidin-4-yl)thio)acetic acid] | < 25 nM | –
15 | Cc1c(C#N)sc2c(SCC(=O)O)ncnc12 [2-((6-cyano-7-methylthieno[3,2-d]pyrimidin-4-yl)thio)acetic acid] | – | < 1000 nM
16 | Cc1csc(CCNC(=O)CSc2ncnc3sc(C)c(Cl)c23)n1 [2-((5-chloro-6-methylthieno[2,3-d]pyrimidin-4-yl)thio)-N-(2-(4-methylthiazol-2-yl)ethyl)acetamide] | < 25 nM | –
17 | Cc1sc2ncnc(SCC(=O)NCc3ccco3)c2c1C [2-((5,6-dimethylthieno[2,3-d]pyrimidin-4-yl)thio)-N-(furan-2-ylmethyl)acetamide] | < 25 nM | –
18 | Cc1c(Cl)sc2ncnc(SCC(=O)O)c12 [2-((6-chloro-5-methylthieno[2,3-d]pyrimidin-4-yl)thio)acetic acid] | < 25 nM | –
19 | Cc1sc2ncnc(SCC(=O)Nc3n[nH]c4cccc(Cl)c34)c2c1C [N-(4-chloro-1H-indazol-3-yl)-2-((5,6-dimethylthieno[2,3-d]pyrimidin-4-yl)thio)acetamide] | < 25 nM | –
20 | Cc1sc2ncnc(SCC(=O)Nc3ccccc3F)c2c1C [2-((5,6-dimethylthieno[2,3-d]pyrimidin-4-yl)thio)-N-(2-fluorophenyl)acetamide] | < 25 nM | –
21 | Cc1sc2ncnc(SCC(=O)N3CCC(C(N)=O)CC3)c2c1C [1-(2-((5,6-dimethylthieno[2,3-d]pyrimidin-4-yl)thio)acetyl)piperidine-4-carboxamide] | < 250 nM | –

Row | Compound | IC50 [1] | EC50 [2]
22 | Cc1ccc(S(=O)(=O)NC(=O)CSc2ncnc3sc(C)c(C)c23)nc1 [2-((5,6-dimethylthieno[2,3-d]pyrimidin-4-yl)thio)-N-((5-methylpyridin-2-yl)sulfonyl)acetamide] | < 100 nM | –
23 | Cc1sc2ncnc(SCC(=O)NS(=O)(=O)C3CC3)c2c1C [N-(cyclopropylsulfonyl)-2-((5,6-dimethylthieno[2,3-d]pyrimidin-4-yl)thio)acetamide] | < 25 nM | –
24 | Cc1sc2ccnc(SCC(=O)O)c2c1Cl [2-((3-chloro-2-methylthieno[3,2-c]pyridin-4-yl)thio)acetic acid] | – | < 5000 nM
25 | COC(=O)CSc1ncnc2sc(C)c(C3CC3)c12 [methyl 2-((5-cyclopropyl-6-methylthieno[2,3-d]pyrimidin-4-yl)thio)acetate] | < 25 nM | –
26 | CCS(=O)(=O)NC(=O)CSc1ncnc2sc(C)c(C)c12 [2-((5,6-dimethylthieno[2,3-d]pyrimidin-4-yl)thio)-N-(ethylsulfonyl)acetamide] | < 25 nM | –
27 | Cc1csc2ncnc(SCC(=O)O)c12 [2-((5-methylthieno[2,3-d]pyrimidin-4-yl)thio)acetic acid] | < 100 nM | –
28 | Cc1c(C2CC2)sc2ncnc(SCC(=O)O)c12 [2-((6-cyclopropyl-5-methylthieno[2,3-d]pyrimidin-4-yl)thio)acetic acid] | – | < 5000 nM
29 | Cc1sc2ncnc(SCC(=O)NCc3cccs3)c2c1C [2-((5,6-dimethylthieno[2,3-d]pyrimidin-4-yl)thio)-N-(thiophen-2-ylmethyl)acetamide] | < 100 nM | –
30 | Cc1c(Br)sc2c(SCC(=O)O)ncnc12 [2-((6-bromo-7-methylthieno[3,2-d]pyrimidin-4-yl)thio)acetic acid] | < 25 nM | –
31 | CCCNC(=O)CSc1ncnc2sc(C)c(Cl)c12 [2-((5-chloro-6-methylthieno[2,3-d]pyrimidin-4-yl)thio)-N-propylacetamide] | < 25 nM | –
32 | COC(=O)CSc1ncnc2sc(C3CC3)c(C)c12 [methyl 2-((6-cyclopropyl-5-methylthieno[2,3-d]pyrimidin-4-yl)thio)acetate] | < 25 nM | –
33 | COC(=O)CSc1ncnc2c(C)c(C#N)sc12 [methyl 2-((6-cyano-7-methylthieno[3,2-d]pyrimidin-4-yl)thio)acetate] | – | < 1000 nM
34 | Cc1c(C(C)C)sc2ncnc(SCC(=O)O)c12 [2-((6-isopropyl-5-methylthieno[2,3-d]pyrimidin-4-yl)thio)acetic acid] | < 50 nM | –
35 | Cc1sc2ncnc(SCC(=O)N(C)CC(=O)O)c2c1Cl [2-(2-((5-chloro-6-methylthieno[2,3-d]pyrimidin-4-yl)thio)-N-methylacetamido)acetic acid] | – | < 1000 nM
36 | Cc1c(Cl)sc2c(SCC(=O)NCCN3CCCCC3)ncnc12 [2-((6-chloro-7-methylthieno[3,2-d]pyrimidin-4-yl)thio)-N-(2-(piperidin-1-yl)ethyl)acetamide] | – | < 1000 nM
37 | Cc1sc2ncnc(SCC(=O)NC(C)CO)c2c1Cl (centres unmarked) [2-((5-chloro-6-methylthieno[2,3-d]pyrimidin-4-yl)thio)-N-(1-hydroxypropan-2-yl)acetamide] | – | < 5000 nM
38 | Cc1sc2ncnc(SCC(=O)NCCc3c[nH]cn3)c2c1Cl [N-(2-(1H-imidazol-4-yl)ethyl)-2-((5-chloro-6-methylthieno[2,3-d]pyrimidin-4-yl)thio)acetamide] | < 25 nM | –
39 | Cc1sc2ncnc(SCC(=O)NCc3cccs3)c2c1Cl [2-((5-chloro-6-methylthieno[2,3-d]pyrimidin-4-yl)thio)-N-(thiophen-2-ylmethyl)acetamide] | < 25 nM | –
40 | Cc1c(Cl)sc2c(SCC(=O)NCc3cccs3)ncnc12 [2-((6-chloro-7-methylthieno[3,2-d]pyrimidin-4-yl)thio)-N-(thiophen-2-ylmethyl)acetamide] | – | < 1000 nM
41 | Cc1sc2ncnc(SCC(=O)NCc3ccncc3)c2c1Cl [2-((5-chloro-6-methylthieno[2,3-d]pyrimidin-4-yl)thio)-N-(pyridin-4-ylmethyl)acetamide] | < 25 nM | –
